Assay results from patent US10160948B2, “Pluripotent embryonic-like stem cells, compositions, methods and uses thereof” (ABT HOLDING COMPANY, priority 1999, dated 2018).

Key:
[1] = tested on: human mesenchymal stem cells; test: Insulin/dexamethasone analysis to identify progenitor and pluripotent cells (morphology); type: cell-based
Experimental: Aliquots of CM-SkM, CF-SkM, NHDF, PAL#3, and PAL#2 cells were thawed and plated individually at 10,000 cells per well in 1% gelatin-coated 24-well plates [Corning, Corning, N.Y.] utilizing PM-B. After 24 hr PM-B was removed and replaced with either control medium, insulin testing medium, or dexamethasone testing medium. Control medium consisted of 98% (v/v) Opti-MEM containing 0.01 mM β-mercapto-ethanol, 1% (v/v) HS3, and 1% antibiotic-antimycotic solution. Insulin testing medium consisted of control medium containing 2 μg/ml insulin [Sigma]. Dexmethasone testing medium was composed of 98% Opti-MEM, 0.01 mM β-mercaptoethanol, 1% serum [HS3, HS9 (horse serum, lot number 90H-0701, Sigma) or FBS (fetal bovine serum, lot no. 3000L, Atlanta Biologicals, Norcross, Ga.)] and 1% antibiotic-antimycotic solution. […]
Discernible changes in phenotypic expression of the cells were assayed morphologically. These morphological tissue cellular types were identical to those previously noted in avian and mouse mesenchymal stem cells incubated with insulin or dexamethasone and extensively analyzed by histochemical and immunochemical procedures (Young et al., 1995; Rogers et al., 1995; Young et al., 1993; Young, 1999; Young et al., 1998). […]
Discernible changes in phenotypic expression of the putative mesenchymal stem cells were determined using morphological criteria. […]

progenitor stem cells = test: Proliferation and phenotypic responses to bioactive factors: progenitor cells; type: cell-based
Excerpt: Having access to mixed populations of progenitor stem cells, progenitor stem cell clones, and pluripotent stem cell clones permits one to address the influence of various bioactive factors (e.g. recombinant growth factors, purified compounds, and novel inductive factors) on the growth characteristics and phenotypic expression of these stem cells.
Cryopreserved cells are thawed and plated in MSC-1 at 5, 10, or 20×10^3 cells per well of gelatinized 24-well plates following the standard protocol. Twenty-four hours after initial plating the medium is changed to testing medium (TM) 1 to 6 (TM-1, TM-2, TM-3, TM-4, TM-5, or TM-6). TM-1 to TM-4 consist of Ultraculture (cat. no. 12-725B, lot. nos. OMO455 [TM-1], 1M1724 [TM-2], 2M0420 [TM-3], or 2M0274 [TM-4], Bio-Whittaker, Walkersville, Md.), medium (EMEM or Opti-MEM 0.01 mM β-mercaptoethanol), and 1% (v/v) antibiotic-antimycotic, pH 7.4. TM-5 consists of 98% (v/v) medium, 1% (v/v) HS, and 1% (v/v) antibiotic-antimycotic, pH 7.4. TM-6 consists of 98.5% (v/v) medium, 0.5% (v/v) HS, and 1% (v/v) antibiotic-antimycotic, pH 7.4. […] Four testing media (TM#'s 1-4), each containing various concentrations of Ultraculture, were used as. […] The four Ultraculture-based testing media were: TM-1=15% (v/v) Ultraculture (Lot no. OMO455): 84% (v/v) medium: 1% (v/v) antibiotics; TM-2=15% (v/v) Ultraculture (Lot no. 1M1724): 84% (v/v) medium: 1% (v/v) antibiotics; TM-3=50% (v/v) Ultraculture (Lot no. 2M0420): 49% (v/v) medium: 1% (v/v) antibiotics; and TM-4=75% (v/v) Ultraculture (Lot no. 2M0274): 24% (v/v) medium: 1% (v/v) antibiotics. Pre-incubation for 24 hr in testing medium alone is used to wash out any potential synergistic components in the MSC-1 medium. Twenty-four hours later the testing medium is changed to one of the following. For controls, TM-1 to TM-6 alone is used. To identify clones of progenitor cells, the medium is replaced with TM-1 to TM-6 containing 2 μg/ml insulin (Sigma), an agent that accelerates the appearance of phenotypic expression markers in progenitor cells (TABLE 12). To identify clones of pluripotent cells, the medium is replaced with TM-1 to TM-6 containing 10^−10 to 10^−6 M dexamethasone (Sigma), a general non-specific lineage-inductive agent (TABLE 13). Control and treated cultures are propagated for an additional 30-45 days with medium changes every other day. Four culture wells are used per concentration per experiment. During the 0-45 day time period the cultures are examined subjectively for changes in morphological characteristics on a daily basis. Alterations in phenotypic expression are correlated with the days of treatment and associated insulin or dexamethasone concentrations. The experiment is then repeated utilizing these parameters to confirm objectively the phenotypic expression markers using established histological, functional/histochemical, ELICA/flow cytometry, and molecular assays (TABLE 13).

insulin
effect on phenotypic expression at 80 cell doublings [1]: had no effect on the cells
Proliferation, Progenitor: number of times the agent increased the DNA content per well versus its respective control (progenitor stem cells): 2 times
Phenotypic Expression, Progenitor (progenitor stem cells; presence and approximate distribution of differentiated phenotypes within the culture wells): All+++
